This is an account of results in patent US20190233287A1, “Methods To Prepare Haloamines Using At Least One Solid Reactant And Products Made Therefrom” (Buckman Laboratories International, Inc., priority 2018, published 2019).

Data set [1] is described as follows: Chlorate ion concentration by Ion Chromatography. Format: physicochemical. Conditions: aqueous solutions of the Dantochlor product (1.5-72 ppm); detection limit 0.5 ppm. How it is done:
The chlorate ion concentration was also analyzed for various aqueous solutions of the Dantochlor product (1.5-72 ppm); chlorate ion was not detected above the method's detection limit of 0.5 ppm.

The nature of data set [2]: Chlorine content, MCA content and pH of solutions, measured at once and again after 1 hour. Format: physicochemical. Conditions: 0.1 wt % Dantochlor aqueous solution, pH 11.2, measured instantly.
Experimental: In this experiment the chlorine-releaser was granular Dantochlor (DCDMH), and the ammonium source was BUSPERSE 2454 (already in the form of an aqueous ammonium sulfate). A one liter aqueous solution containing 0.1 wt % Dantochlor was prepared. This aqueous solution was adjusted to a pH of 11.2 using NaOH (50%).
A molar equivalent amount of BUSPERSE 2454 was ±0.7 ml for a one liter solution. A 30% molar overdosage was used and thus, 1 ml of BUSPERSE 2454 was added to the aqueous solution of Dantochlor.
For data set [3] the following is noted: weak acid; cited from earlier work.

Regarding `CC1(C)C(=O)N(Cl)C(=O)N1Cl` [Dantochlor, dichlorodimethylhydantoin], the chlorate ion concentration in data set [1] is recorded as under 0.5 ppm. Besides, in data set [2], the “Free Cl2” value worked out at 274 ppm Cl2 and the “Total Cl2” value was found to be 600 ppm Cl2.

Regarding `OCl` [HOCl, hypochlorous acid], the pKa in data set [3] was 7.5.

In general, pKa refers to the pH at which an ionisable group is half protonated.
